Source: paper PMC11411632 (RSC Advances, 2024)

Target: α-amylase
Experiment: α-amylase inhibition, starch/DNSA colorimetric assay at […] nm
Assay type: biochemical

SMILES	α-Amylase inhibition method IC50 value
Cc1ccc(-c2nn(C(=O)c3ccncc3)cc2C(=O)O)cc1 [MPP, 3-(4-methylphenyl)-1-(pyridine-4-carbonyl)-1H-pyrazole-4-carboxylic acid]	200.94 µg/mL
O=C(O)c1cn(C(=O)c2ccncc2)nc1-c1ccccc1 [PPP, 3-phenyl-1-(pyridine-4-carbonyl)-1H-pyrazole-4-carboxylic acid]	122.17 µg/mL
